Target: PDE1A (Homo sapiens, UniProt P54750)
Test: PDE1A enzyme inhibition (fluorescence polarization, FAM-cyclic-3',5'-AMP)
Type: biochemical
Conditions: for IC50: 15 ng/mL PDE1A, 100 nM FAM-cAMP, 25 °C, 1 h; for PDE1A inhibitory activity compared to vinpocetine (in words) / fold improvement in PDE1A inhibitory activity compared to vinpocetine: relative to vinpocetine
Procedure: The assays were carried out as described previously. All of the enzymatic reactions were conducted at 25 °C for 1 h. The reaction mixture contains 40 mM MOPS (pH 7.5), 0.5 mM EDTA, 15 mM MgCl2, 0.15 mg/mL BSA, 1 mM DTT, 0.05% Proclin 200, 15 ng/mL PDE1A, and 100 nM FAM-cyclic-3′, 5′-AMP. The compounds were dissolved in 10% DMSO, and 5 μL of the dilution was added to a 50 μL reaction for a final concentration of 1% DMSO in all reactions. The reaction mixture was incubated at 25 °C for 1 h. Then, 100 μL of diluted binding agent was added to each well and incubated at 25 °C for 1 h with slow shaking. The fluorescence polarization of the sample was detected using an excitation filter of 360 nm and an emission filter of 480 nm. The IC50 values were calculated using non-linear regression with a normalized dose–response fit using Prism 6 (GraphPad Software, San Diego, CA, USA).

Chain of PDE1A (P54750 whole entry, species assumed): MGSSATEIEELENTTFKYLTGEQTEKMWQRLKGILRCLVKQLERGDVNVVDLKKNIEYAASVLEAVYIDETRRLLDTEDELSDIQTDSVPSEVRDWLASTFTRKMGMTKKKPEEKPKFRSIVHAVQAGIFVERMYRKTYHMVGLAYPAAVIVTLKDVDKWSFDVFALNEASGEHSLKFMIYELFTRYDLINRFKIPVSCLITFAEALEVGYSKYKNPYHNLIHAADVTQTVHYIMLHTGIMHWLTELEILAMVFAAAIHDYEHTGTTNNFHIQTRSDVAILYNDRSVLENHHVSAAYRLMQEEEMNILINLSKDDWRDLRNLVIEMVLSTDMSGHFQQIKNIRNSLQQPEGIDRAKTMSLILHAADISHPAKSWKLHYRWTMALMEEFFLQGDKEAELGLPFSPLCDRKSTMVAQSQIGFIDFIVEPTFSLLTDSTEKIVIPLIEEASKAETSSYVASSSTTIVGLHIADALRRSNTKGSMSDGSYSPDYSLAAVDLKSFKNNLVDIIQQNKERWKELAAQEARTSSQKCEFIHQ

Compound	IC50 [µM]	PDE1A inhibitory activity compared to vinpocetine (in words)	fold improvement in PDE1A inhibitory activity compared to vinpocetine [fold]
CC[C@@]12C=C(COCc3ccccc3)n3c4c(c5ccccc53)CCN(CCC1)[C@H]42 [Compound 2, (41S,13aS)-12-((benzyloxy)methyl)-13a-ethyl-2,3,41,5,6,13a-hexahydro-1H-indolo[3,2,1-de]pyrido[3,2,1-ij][1,5]naphthyridine]	19.2 ± 2.25		
CC[C@@]12C=C(COCc3ccc(C)cc3)n3c4c(c5ccccc53)CCN(CCC1)[C@H]42 [Compound 3, (41S,13aS)-13a-ethyl-12-(((4-methylbenzyl)oxy)methyl)-2,3,41,5,6,13a-hexahydro-1H-indolo[3,2,1-de]pyrido[3,2,1-ij][1,5]naphthyridine]	8.52 ± 0.68	superior inhibitory activity compared to vinpocetine	
CCC12C=C(COCc3cccc(C)c3)n3c4c(c5ccccc53)CCN(CCC1)C42 [Compound 4, (41S,13aS)-13a-ethyl-12-(((3-methylbenzyl)oxy)methyl)-2,3,41,5,6,13a-hexahydro-1H-indolo[3,2,1-de]pyrido[3,2,1-ij][1,5]naphthyridine]	3.53 ± 0.25	superior inhibitory activity compared to vinpocetine	5
CC[C@@]12C=C(COCc3ccc(F)cc3)n3c4c(c5ccccc53)CCN(CCC1)[C@H]42 [Compound 5, (41S,13aS)-13a-ethyl-12-(((4-fluorobenzyl)oxy)methyl)-2,3,41,5,6,13a-hexahydro-1H-indolo[3,2,1-de]pyrido[3,2,1-ij][1,5]naphthyridine]	17.2 ± 3.75	superior inhibitory activity compared to vinpocetine	
CC[C@@]12C=C(COCc3cccc(F)c3)n3c4c(c5ccccc53)CCN(CCC1)[C@H]42 [Compound 6, (41S,13aS)-13a-ethyl-12-(((3-fluorobenzyl)oxy)methyl)-2,3,41,5,6,13a-hexahydro-1H-indolo[3,2,1-de]pyrido[3,2,1-ij][1,5]naphthyridine]	25.6 ± 1.23		
CC[C@@]12C=C(COCc3ccccc3F)n3c4c(c5ccccc53)CCN(CCC1)[C@H]42 [Compound 7, (41S,13aS)-13a-ethyl-12-(((2-fluorobenzyl)oxy)methyl)-2,3,41,5,6,13a-hexahydro-1H-indolo[3,2,1-de]pyrido[3,2,1-ij][1,5]naphthyridine]	28.7 ± 1.15		
CC[C@@]12C=C(COCc3ccc(Cl)cc3)n3c4c(c5ccccc53)CCN(CCC1)[C@H]42 [Compound 8, (41S,13aS)-12-(((4-chlorobenzyl)oxy)methyl)-13a-ethyl-2,3,41,5,6,13a-hexahydro-1H-indolo[3,2,1-de]pyrido[3,2,1-ij][1,5]naphthyridine]	48.8 ± 2.55		
CC[C@@]12C=C(COCc3cccc(Cl)c3)n3c4c(c5ccccc53)CCN(CCC1)[C@H]42 [Compound 9, (41S,13aS)-12-(((3-chlorobenzyl)oxy)methyl)-13a-ethyl-2,3,41,5,6,13a-hexahydro-1H-indolo[3,2,1-de]pyrido[3,2,1-ij][1,5]naphthyridine]	72.1 ± 3.89		
CC[C@@]12C=C(COCc3ccccc3Cl)n3c4c(c5ccccc53)CCN(CCC1)[C@H]42 [Compound 10, (41S,13aS)-12-(((2-chlorobenzyl)oxy)methyl)-13a-ethyl-2,3,41,5,6,13a-hexahydro-1H-indolo[3,2,1-de]pyrido[3,2,1-ij][1,5]naphthyridine]	35 ± 1.85		
CC[C@@]12C=C(COCc3ccc(Br)cc3)n3c4c(c5ccccc53)CCN(CCC1)[C@H]42 [Compound 11, (41S,13aS)-12-(((4-bromobenzyl)oxy)methyl)-13a-ethyl-2,3,41,5,6,13a-hexahydro-1H-indolo[3,2,1-de]pyrido[3,2,1-ij][1,5]naphthyridine]	54.8 ± 3.42		
CC[C@@]12C=C(COCc3cccc(Br)c3)n3c4c(c5ccccc53)CCN(CCC1)[C@H]42 [Compound 12, (41S,13aS)-12-(((3-bromobenzyl)oxy)methyl)-13a-ethyl-2,3,41,5,6,13a-hexahydro-1H-indolo[3,2,1-de]pyrido[3,2,1-ij][1,5]naphthyridine]	12.5 ± 1.06	superior inhibitory activity compared to vinpocetine	
CC[C@@]12C=C(COCc3ccccc3Br)n3c4c(c5ccccc53)CCN(CCC1)[C@H]42 [Compound 13, (41S,13aS)-12-(((2-bromobenzyl)oxy)methyl)-13a-ethyl-2,3,41,5,6,13a-hexahydro-1H-indolo[3,2,1-de]pyrido[3,2,1-ij][1,5]naphthyridine]	88.3 ± 3.26		
CC[C@@]12C=C(COCc3ccc(C#N)cc3)n3c4c(c5ccccc53)CCN(CCC1)[C@H]42 [Compound 14, 4-((((41S,13aS)-13a-ethyl-2,3,41,5,6,13a-hexahydro-1H-indolo[3,2,1-de]pyrido[3,2,1-ij][1,5]naphthyridin-12-yl)methoxy)methyl)benzonitrile]	15.6 ± 1.09	superior inhibitory activity compared to vinpocetine	
CC[C@@]12C=C(COCc3ccccc3C#N)n3c4c(c5ccccc53)CCN(CCC1)[C@H]42 [Compound 15, 2-((((41S,13aS)-13a-ethyl-2,3,41,5,6,13a-hexahydro-1H-indolo[3,2,1-de]pyrido[3,2,1-ij][1,5]naphthyridin-12-yl)methoxy)methyl)benzonitrile]	45.1 ± 2.27		
CC[C@@]12C=C(COCc3ccc(C(F)(F)F)cc3)n3c4c(c5ccccc53)CCN(CCC1)[C@H]42 [Compound 16, (41S,13aS)-13a-ethyl-12-(((4-(trifluoromethyl)benzyl)oxy)methyl)-2,3,41,5,6,13a-hexahydro-1H-indolo[3,2,1-de]pyrido[3,2,1-ij][1,5]naphthyridine]	57.7 ± 2.96		
CC[C@@]12C=C(COCc3cccc(C(F)(F)F)c3)n3c4c(c5ccccc53)CCN(CCC1)[C@H]42 [Compound 17, (41S,13aS)-13a-ethyl-12-(((3-(trifluoromethyl)benzyl)oxy)methyl)-2,3,41,5,6,13a-hexahydro-1H-indolo[3,2,1-de]pyrido[3,2,1-ij][1,5]naphthyridine]	48.4 ± 1.44		
CC[C@@]12C=C(COCc3ccc(-c4ccccc4)cc3)n3c4c(c5ccccc53)CCN(CCC1)[C@H]42 [Compound 18, (41S,13aS)-12-(([1,1′-biphenyl]-4-ylmethoxy)methyl)-13a-ethyl-2,3,41,5,6,13a-hexahydro-1H-indolo[3,2,1-de]pyrido[3,2,1-ij][1,5]naphthyridine]	44.8 ± 2.26		
CC[C@@]12C=C(COCc3cccc4ccccc34)n3c4c(c5ccccc53)CCN(CCC1)[C@H]42 [Compound 19, (41S,13aS)-13a-ethyl-12-((naphthalen-1-ylmethoxy)methyl)-2,3,41,5,6,13a-hexahydro-1H-indolo[3,2,1-de]pyrido[3,2,1-ij][1,5]naphthyridine]	54.3 ± 1.84		
CC[C@@]12C=C(COCc3ccc4ccccc4c3)n3c4c(c5ccccc53)CCN(CCC1)[C@H]42 [Compound 20, (41S,13aS)-13a-ethyl-12-((naphthalen-2-ylmethoxy)methyl)-2,3,41,5,6,13a-hexahydro-1H-indolo[3,2,1-de]pyrido[3,2,1-ij][1,5]naphthyridine]	89.6 ± 5.34		
CC[C@@]12C=C(COCc3cc(C)cc(C)c3)n3c4c(c5ccccc53)CCN(CCC1)[C@H]42 [Compound 21, (41S,13aS)-12-(((3,5-dimethylbenzyl)oxy)methyl)-13a-ethyl-2,3,41,5,6,13a-hexahydro-1H-indolo[3,2,1-de]pyrido[3,2,1-ij][1,5]naphthyridine]	10 ± 0.85	superior inhibitory activity compared to vinpocetine	
CC[C@@]12C=C(COCc3cc(F)cc(F)c3)n3c4c(c5ccccc53)CCN(CCC1)[C@H]42 [Compound 22, (41S,13aS)-12-(((3,5-difluorobenzyl)oxy)methyl)-13a-ethyl-2,3,41,5,6,13a-hexahydro-1H-indolo[3,2,1-de]pyrido[3,2,1-ij][1,5]naphthyridine]	46.4 ± 1.94		
CC[C@@]12C=C(COCc3cc(Br)cc(Br)c3)n3c4c(c5ccccc53)CCN(CCC1)[C@H]42 [Compound 23, (41S,13aS)-12-(((3,5-dibromobenzyl)oxy)methyl)-13a-ethyl-2,3,41,5,6,13a-hexahydro-1H-indolo[3,2,1-de]pyrido[3,2,1-ij][1,5]naphthyridine]	58.2 ± 3.2		
CC[C@@]12C=C(COCc3cc(C)nn3C)n3c4c(c5ccccc53)CCN(CCC1)[C@H]42 [Compound 24, (41S,13aS)-12-(((1,3-dimethyl-1H-pyrazol-5-yl)methoxy)methyl)-13a-ethyl-2,3,41,5,6,13a-hexahydro-1H-indolo[3,2,1-de]pyrido[3,2,1-ij][1,5]naphthyridine]	63.7 ± 3.85		
CCC12C=C(COCc3cnc(Cl)s3)n3c4c(c5ccccc53)CCN(CCC1)C42 [Compound 25, 2-chloro-5-((((41S,13aS)-13a-ethyl-2,3,41,5,6,13a-hexahydro-1H-indolo[3,2,1-de]pyrido[3,2,1-ij][1,5]naphthyridin-12-yl)methoxy)methyl)thiazole]	2.08 ± 0.16	superior inhibitory activity compared to vinpocetine	8
CCOC(=O)C1=C[C@]2(CC)CCCN3CCc4c(n1c1ccccc41)[C@@H]32 [Vinpocetine]	17.3 ± 1.21		

Source: publication PMC10779641, “Synthesis and Activity Evaluation of Vinpocetine-Derived Indole Alkaloids” (Molecules, 2023)
